Test results as given in patent US6323199A, “Nonsteroidal anti-inflammatory agents” (Schering Aktiengesellschaft, priority 1998, dated 2001).
Like-named read-outs stand apart in the source and are kept apart here.

Molecular target: T1, glucocorticoid receptor (GR) (Rattus norvegicus, UniProt P06536)
T1 construct: cytosol preparations that consist of the thymus homogenates of rats; from tissue; host or cells: rat thymus homogenate, cytosol
T1 sequence (P06536 1-795): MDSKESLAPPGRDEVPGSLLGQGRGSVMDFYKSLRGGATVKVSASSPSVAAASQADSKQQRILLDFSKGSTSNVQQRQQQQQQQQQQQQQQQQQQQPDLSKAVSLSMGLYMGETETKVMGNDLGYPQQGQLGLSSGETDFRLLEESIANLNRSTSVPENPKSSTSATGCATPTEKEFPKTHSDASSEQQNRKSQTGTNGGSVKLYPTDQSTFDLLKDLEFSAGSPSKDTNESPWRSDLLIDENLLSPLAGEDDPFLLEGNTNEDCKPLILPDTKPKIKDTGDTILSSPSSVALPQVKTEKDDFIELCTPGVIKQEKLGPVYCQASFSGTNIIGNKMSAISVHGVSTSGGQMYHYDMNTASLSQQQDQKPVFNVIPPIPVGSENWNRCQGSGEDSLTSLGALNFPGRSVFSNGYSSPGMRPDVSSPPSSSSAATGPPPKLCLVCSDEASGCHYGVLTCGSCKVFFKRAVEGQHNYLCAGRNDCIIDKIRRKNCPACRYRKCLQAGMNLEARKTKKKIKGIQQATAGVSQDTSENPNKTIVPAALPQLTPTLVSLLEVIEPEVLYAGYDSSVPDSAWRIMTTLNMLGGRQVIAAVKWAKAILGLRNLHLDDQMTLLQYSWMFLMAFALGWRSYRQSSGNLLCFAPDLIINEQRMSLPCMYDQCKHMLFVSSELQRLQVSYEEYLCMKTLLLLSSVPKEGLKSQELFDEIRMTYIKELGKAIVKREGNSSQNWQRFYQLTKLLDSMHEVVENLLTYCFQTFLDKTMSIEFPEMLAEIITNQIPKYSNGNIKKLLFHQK
Assay: glucocorticoid receptor (GR)-binding test, cytosol of rat thymus homogenates, [3H]-dexamethasone

[1] = 10 nM [3H]-dexamethasone, rat thymus cytosol, read-out: IC50 (GR-binding test)

IC50 [nM]	IC50 [1] [nM]	SMILES
2.6	–	Cc1noc(=O)c2ccc(NC(=O)C(O)(CC(C)(C)c3cc(F)ccc3O)C(F)(F)F)cc12 (centres unmarked) [v, 6-[4-(5-fluoro-2-hydroxyphenyl)-2-hydroxy-4-methyl-2-trifluoromethyl-valeroylamino]-4-methyl-2,3-benzoxazin-1-one]
2.8	–	CC(C)(CC(O)(C(=O)Nc1ccc2c(c1)COC2=O)C(F)(F)F)c1cc(F)ccc1O (centres unmarked) [i, 5-[4-(5-Fluoro-2-hydroxyphenyl)-2-hydroxy-4-methyl-2-trifluoromethyl-valeroylamino]-phthalide]
–	4.9	COc1cc(Br)ccc1C(C)(C)CC(O)(C(=O)Nc1ccc2c(=O)onc(C)c2c1)C(F)(F)F (centres unmarked) [iv, 6-[4-(4-bromo-2-methoxyphenyl)-2-hydroxy-4-methyl-2-trifluoromethyl-valeroylamino]-4-methyl-2,3-benzoxazin-1-one]
–	2.3	CC(C)(CC(O)(CNc1ccc2c(c1)COC2=O)C(F)(F)F)c1cc(F)ccc1O (centres unmarked) [ii, 5-[4-(5-fluoro-2-hydroxyphenyl)-2-hydroxy-4-methyl-2-trifluoromethyl-pentylamino]-phthalide]
–	4.6	COc1ccc(F)cc1C(C)(C)CC(O)(C(=O)Nc1ccc2c(=O)onc(C)c2c1)C(F)(F)F (centres unmarked) [iii, 6-[4-(5-fluoro-2-methoxyphenyl)-2-hydroxy-4-methyl-2-trifluoromethyl-valeroylamino]-4-methyl-2,3-benzoxazin-1-one]
